According to US8791131B2, “Imidazo[1,5]naphthyridine compounds, their pharmaceutical use and compositions” (Pfizer Inc., priority 2008, dated 2014):
Where two headings read alike, the source gives them in different places.

Tests used:
PI3-Kα = PI3-Kα (Mus musculus (Mouse), UniProt P42337); assay: PI3-Kα biochemical assay (in vitro kinase assay, fluorescence polarization); conditions: Ki calculated from IC50, [ATP]=30 uM, Km=25 uM;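 further: Insect-cell-expressed mouse p110/p85 complex converting PI(4,5)P2, product PI(3,4,5)P3 detected by displacing TAMRA-tagged PI(3,4,5)P3 from Grip1 PH domain, lower polarization means more product, room temperature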
mTOR = mTOR (Homo sapiens (Human), UniProt P42345)
[1] = test system: PI3-K (phosphorylation of AKT at serine 473) in BT20 cells; assay: PI3-Kα cellular assay (phospho-AKT Ser473 ELISA in BT20 cells); conditions: Homo sapiens, BT-20, 1 h;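 further: lysates read by ELISA with TMB colour at 450 nm, cells given 0.5% DMSO vehicle serve as positive control and cell-free wells as negative control, duplicate wells per concentration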
[2] = read-out: S473 pAKT 10% FBS IC50 (μM)
[3] = read-out: S473 pAKT 0.5% FBS IC50 (μM)

Sequence of PI3-Kα (P42337 whole entry, the tested form may be a part): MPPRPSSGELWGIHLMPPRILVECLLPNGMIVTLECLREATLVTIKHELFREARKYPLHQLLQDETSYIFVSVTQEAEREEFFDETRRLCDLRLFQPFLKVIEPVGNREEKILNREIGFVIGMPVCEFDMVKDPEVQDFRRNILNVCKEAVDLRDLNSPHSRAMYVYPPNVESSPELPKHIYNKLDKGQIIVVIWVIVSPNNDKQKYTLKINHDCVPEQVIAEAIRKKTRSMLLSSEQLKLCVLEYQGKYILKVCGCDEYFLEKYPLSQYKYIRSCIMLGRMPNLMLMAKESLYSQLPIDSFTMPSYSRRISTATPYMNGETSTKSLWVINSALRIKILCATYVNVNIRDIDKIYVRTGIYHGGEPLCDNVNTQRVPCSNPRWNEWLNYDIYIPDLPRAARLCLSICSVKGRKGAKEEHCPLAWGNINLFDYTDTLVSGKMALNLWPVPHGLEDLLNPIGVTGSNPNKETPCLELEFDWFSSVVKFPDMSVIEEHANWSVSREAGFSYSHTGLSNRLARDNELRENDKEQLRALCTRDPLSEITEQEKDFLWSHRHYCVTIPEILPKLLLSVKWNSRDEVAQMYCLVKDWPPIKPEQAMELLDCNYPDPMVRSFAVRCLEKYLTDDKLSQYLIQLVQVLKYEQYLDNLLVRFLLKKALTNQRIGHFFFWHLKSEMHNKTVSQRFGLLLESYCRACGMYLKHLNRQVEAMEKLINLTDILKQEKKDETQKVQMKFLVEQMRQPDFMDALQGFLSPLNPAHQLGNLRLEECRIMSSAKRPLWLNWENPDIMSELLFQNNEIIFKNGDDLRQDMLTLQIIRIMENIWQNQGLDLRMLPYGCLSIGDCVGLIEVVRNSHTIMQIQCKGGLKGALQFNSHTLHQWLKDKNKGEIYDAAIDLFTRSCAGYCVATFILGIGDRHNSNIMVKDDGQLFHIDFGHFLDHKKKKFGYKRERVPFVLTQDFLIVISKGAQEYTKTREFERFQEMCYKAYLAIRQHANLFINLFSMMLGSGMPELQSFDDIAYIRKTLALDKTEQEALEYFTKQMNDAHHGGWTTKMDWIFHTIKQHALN
Sequence of PI3-Kα (P26450 whole entry partner, the tested form may be a part): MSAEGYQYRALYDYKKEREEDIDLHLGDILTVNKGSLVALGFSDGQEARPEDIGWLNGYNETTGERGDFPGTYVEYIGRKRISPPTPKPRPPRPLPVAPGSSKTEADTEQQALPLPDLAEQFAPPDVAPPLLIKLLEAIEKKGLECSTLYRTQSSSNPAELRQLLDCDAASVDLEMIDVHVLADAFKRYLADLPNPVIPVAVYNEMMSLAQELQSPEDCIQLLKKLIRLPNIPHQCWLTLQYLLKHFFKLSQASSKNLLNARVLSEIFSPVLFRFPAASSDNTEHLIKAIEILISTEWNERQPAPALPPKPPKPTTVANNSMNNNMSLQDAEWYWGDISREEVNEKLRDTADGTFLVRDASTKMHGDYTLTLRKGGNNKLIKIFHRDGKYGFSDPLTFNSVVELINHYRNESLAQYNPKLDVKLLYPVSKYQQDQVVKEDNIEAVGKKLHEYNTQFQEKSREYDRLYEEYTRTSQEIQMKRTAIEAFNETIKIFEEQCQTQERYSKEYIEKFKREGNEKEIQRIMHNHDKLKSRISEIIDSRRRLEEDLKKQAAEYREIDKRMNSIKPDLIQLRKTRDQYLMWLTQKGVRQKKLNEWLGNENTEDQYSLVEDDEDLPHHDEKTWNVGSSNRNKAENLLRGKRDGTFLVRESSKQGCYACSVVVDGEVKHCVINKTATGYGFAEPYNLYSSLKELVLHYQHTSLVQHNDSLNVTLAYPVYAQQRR
Sequence of mTOR (P42345 2156-2469): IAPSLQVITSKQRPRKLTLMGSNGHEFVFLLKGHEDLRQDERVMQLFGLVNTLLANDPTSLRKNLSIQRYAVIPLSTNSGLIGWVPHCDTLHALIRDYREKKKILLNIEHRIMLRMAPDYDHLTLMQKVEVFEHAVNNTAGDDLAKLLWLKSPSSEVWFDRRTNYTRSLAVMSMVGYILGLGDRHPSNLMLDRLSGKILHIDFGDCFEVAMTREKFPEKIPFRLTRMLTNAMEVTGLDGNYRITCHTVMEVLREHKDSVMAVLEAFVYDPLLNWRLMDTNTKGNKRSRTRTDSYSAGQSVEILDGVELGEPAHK

Compound | PI3Ka Ki (PI3-Kα) | Ki (mTOR) | IC50 [1, 2] | IC50 [1, 3]
COc1ncc(-c2ccc3ncc4c(c3n2)n(C2CCN(CC(=O)N(C)C)CC2)c(=O)n4C)cn1 [Compound 163, 2-{4-[8-(2-methoxypyrimidin-5-yl)-3-methyl-2-oxo-2,3-dihydro-1H-imidazo[4,5-c][1,5]naphthyridin-1-yl]piperidin-1-yl}-N,N-dimethylacetamide] | 4.7 nM | 18.4 nM | 0.037 µM | 
CNC(=O)N1CCC(n2c(=O)n(C)c3cnc4ccc(-c5ccc(N(C)C)nc5)nc4c32)CC1 [Compound 196, 4-{8-[6-(dimethylamino)pyridin-3-yl]-3-methyl-2-oxo-2,3-dihydro-1H-imidazo[4,5-c][1,5]naphthyridin-1-yl}-N-methylpiperidine-1-carboxamide] | 0.76 nM | 3.01 nM | 0.0243 µM | 
Cn1cc(-c2ccc3ncc4[nH]c(=O)n(-c5ccc(C(C)(C)C#N)cc5)c4c3n2)cn1 [Compound 113, 2-Methyl-2-{4-[8-(1-methyl-1H-pyrazol-4-yl)-2-oxo-2,3-dihydro-1,3,5,9-tetraaza-cyclopenta[a]naphthalen-1-yl]-phenyl}-propionitrile] | 59.2 nM | 15.5 nM |  | 0.0973 µM
Cc1ccc(-c2ccc3ncc4c(c3n2)n([C@H]2CC[C@H](O)CC2)c(=O)n4C)cn1 [Compound 179, 1-(trans-4-hydroxycyclohexyl)-3-methyl-8-(6-methylpyridin-3-yl)-1,3-dihydro-2H-imidazo[4,5-c][1,5]naphthyridin-2-one] | 1.03 nM | 3.29 nM | 0.0185 µM | 
COc1ncc(-c2ccc3ncc4c(c3n2)n(C2CCN(C(C)=O)CC2)c(=O)n4C)cn1 [Compound 187, 1-(1-acetylpiperidin-4-yl)-8-(2-methoxypyrimidin-5-yl)-3-methyl-1,3-dihydro-2H-imidazo[4,5-c][1,5]naphthyridin-2-one] | 3.87 nM | 3.74 nM | 0.0346 µM | 
CN(C)c1ccc(-c2ccc3ncc4[nH]c(=O)n(-c5ccc(C(C)(C)C#N)cc5)c4c3n2)cn1 [Compound 107, 2-(4-(8-(6-(dimethylamino)pyridin-3-yl)-2-oxo-2,3-dihydroimidazo[4,5-c][1,5]naphthyridin-1-yl)phenyl)-2-methylpropanenitrile] | 3.85 nM | 4.26 nM |  | 0.0676 µM
Cc1ccc(-c2ccc3ncc4c(c3n2)n(C2CCOCC2)c(=O)n4C)cn1 [Compound 200, 3-methyl-8-(6-methylpyridin-3-yl)-1-(tetrahydro-2H-pyran-4-yl)-1,3-dihydro-2H-imidazo[4,5-c][1,5]naphthyridin-2-one] | 1.11 nM | 1.72 nM | 0.0273 µM | 
COc1ccc(-c2ccc3ncc4[nH]c(=O)n([C@H]5CC[C@H](O)CC5)c4c3n2)cn1 [Compound 132, 1-(trans-4-hydroxycyclohexyl)-8-(6-methoxypyridin-3-yl)-1,3-dihydro-2H-imidazo[4,5-c][1,5]naphthyridin-2-one] | 0.51 nM | 1.39 nM | 0.0468 µM | 
Cn1c(=O)n(C2CCN(C(=O)C(C)(C)O)CC2)c2c3nc(-c4cnc5ccccc5c4)ccc3ncc21 [Compound 143, 1-[1-(2-hydroxy-2-methylpropanoyl)piperidin-4-yl]-3-methyl-8-quinolin-3-yl-1,3-dihydro-2H-imidazo[4,5-c][1,5]naphthyridin-2-one] | 0.568 nM | 7.21 nM | 0.028 µM | 
Cn1c(=O)n(C2CCN(C(=O)CO)CC2)c2c3nc(-c4cccc5[nH]ncc45)ccc3ncc21 [Compound 256, 1-(1-glycoloylpiperidin-4-yl)-8-(1H-indazol-4-yl)-3-methyl-1,3-dihydro-2H-imidazo[4,5-c][1,5]naphthyridin-2-one] | 0.575 nM | 1.97 nM | 0.0604 µM | 
COc1ccc(-c2ccc3ncc4c(c3n2)n(C2CCN(C(C)=O)CC2)c(=O)n4C)cc1 [Compound 274, 1-(1-acetylpiperidin-4-yl)-8-(4-methoxyphenyl)-3-methyl-1,3-dihydro-2H-imidazo[4,5-c][1,5]naphthyridin-2-one] | 7.71 nM | 14.6 nM | 0.0113 µM | 
COc1ccc(-c2ccc3ncc4c(c3n2)n(C2CCN(C(C)C)CC2)c(=O)n4C)cn1 [Compound 137, 1-(1-isopropylpiperidin-4-yl)-8-(6-methoxypyridin-3-yl)-3-methyl-1,3-dihydro-2H-imidazo[4,5-c][1,5]naphthyridin-2-one] | 3.48 nM | 17.8 nM | 0.0551 µM | 
Cn1cc(-c2ccc3ncc4c(c3n2)n(C2CCOCC2)c(=O)n4C)cn1 [Compound 203, 3-methyl-8-(1-methyl-1H-pyrazol-4-yl)-1-(tetrahydro-2H-pyran-4-yl)-1,3-dihydro-2H-imidazo[4,5-c][1,5]naphthyridin-2-one] | 5.17 nM | 72.3 nM | 0.0718 µM | 
CN(C)c1ccc(-c2ccc3ncc4c(c3n2)n(C2CCN(C(=O)CO)CC2)c(=O)n4C)cn1 [Compound 216, 8-[6-(dimethylamino)pyridin-3-yl]-1-(1-glycoloylpiperidin-4-yl)-3-methyl-1,3-dihydro-2H-imidazo[4,5-c][1,5]naphthyridin-2-one] | 0.505 nM | 2.29 nM | 0.00623 µM | 
COc1ncc(-c2ccc3ncc4c(c3n2)n(-c2ccc(C(C)(C)C#N)cc2)c(=O)n4C)cc1F [Compound 110, 2-(4-(8-(5-fluoro-6-methoxypyridin-3-yl)-3-methyl-2-oxo-2,3-dihydroimidazo[4,5-c][1,5]naphthyridin-1-yl)phenyl)-2-methylpropanenitrile] | 2.35 nM | 26.6 nM | 0.0907 µM | 
COCCN1CCC(n2c(=O)n(C)c3cnc4ccc(-c5ccc(N(C)C)nc5)nc4c32)CC1 [Compound 206, 8-[6-(dimethylamino)pyridin-3-yl]-1-[1-(2-methoxyethyl)piperidin-4-yl]-3-methyl-1,3-dihydro-2H-imidazo[4,5-c][1,5]naphthyridin-2-one] | 0.802 nM | 8.09 nM | 0.0318 µM | 
COc1ccc(-c2ccc3ncc4[nH]c(=O)n(Cc5ccccc5)c4c3n2)cn1 [Compound 130, 1-benzyl-8-(6-methoxypyridin-3-yl)-1,3-dihydro-2H-imidazo[4,5-c][1,5]naphthyridin-2-one] | 2.39 nM | 8.44 nM |  | 0.0245 µM
COCCn1c(=O)n(C)c2cnc3ccc(-c4ccc(OC)nc4)nc3c21 [Compound 270, 1-(2-methoxyethyl)-8-(6-methoxypyridin-3-yl)-3-methyl-1,3-dihydro-2H-imidazo[4,5-c][1,5]naphthyridin-2-one] | 13.5 nM | 7.13 nM | 0.207 µM | 
Cn1c(=O)n([C@H]2CC[C@H](O)CC2)c2c3nc(-c4cnc(N)nc4)ccc3ncc21 [Compound 229, 8-(2-aminopyrimidin-5-yl)-1-(trans-4-hydroxycyclohexyl)-3-methyl-1,3-dihydro-2H-imidazo[4,5-c][1,5]naphthyridin-2-one] | 0.273 nM | 0.33 nM | 0.00336 µM | 
COc1ncc(-c2ccc3ncc4c(c3n2)n(C2CCN(C)CC2)c(=O)n4C)cn1 [Compound 182, 8-(2-methoxypyrimidin-5-yl)-3-methyl-1-(1-methylpiperidin-4-yl)-1,3-dihydro-2H-imidazo[4,5-c][1,5]naphthyridin-2-one] | 27.5 nM | 4.51 nM | 0.159 µM | 
CN(C)c1ccc(-c2ccc3ncc4c(c3n2)n(C2CCNCC2)c(=O)n4C)cn1 [Compound 191, 8-[6-(dimethylamino)pyridin-3-yl]-3-methyl-1-piperidin-4-yl-1,3-dihydro-2H-imidazo[4,5-c][1,5]naphthyridin-2-one] | 0.5 nM | 8.41 nM | 0.0246 µM | 
COc1ccc(-c2ccc3ncc4c(c3n2)n(CCN2CCNCC2)c(=O)n4C)cn1 [Compound 266, 8-(6-methoxypyridin-3-yl)-3-methyl-1-(2-piperazin-1-ylethyl)-1,3-dihydro-2H-imidazo[4,5-c][1,5]naphthyridin-2-one] | 7.8 nM | 273 nM | 0.344 µM | 
CN(C)c1ccc(-c2ccc3ncc4c(c3n2)n([C@H]2CC[C@H](OCCO)CC2)c(=O)n4C)cn1 [Compound 149, 8-[6-(dimethylamino)pyridin-3-yl]-1-[trans-4-(2-hydroxyethoxy)cyclohexyl]-3-methyl-1,3-dihydro-2H-imidazo[4,5-c][1,5]naphthyridin-2-one] | 0.102 nM | 9.02 nM | 0.0116 µM | 
CC(C)C(=O)N1CCC(n2c(=O)n(C)c3cnc4ccc(-c5cnc6ccccc6c5)nc4c32)CC1 [Compound 125, 1-(1-isobutyrylpiperidin-4-yl)-3-methyl-8-quinolin-3-yl-1,3-dihydro-2H-imidazo[4,5-c][1,5]naphthyridin-2-one] | 1.06 nM | 4.87 nM |  | 0.0294 µM
COc1ncc(-c2ccc3ncc4c(c3n2)n([C@H]2CC[C@H](O)CC2)c(=O)n4C)cn1 [Compound 169, 1-(trans-4-hydroxycyclohexyl)-8-(2-methoxypyrimidin-5-yl)-3-methyl-1,3-dihydro-2H-imidazo[4,5-c][1,5]naphthyridin-2-one] |  | 6.39 nM | 1 µM | 
CN1CCC(n2c(=O)n(C)c3cnc4ccc(-c5ccc(N(C)C)nc5)nc4c32)CC1 [Compound 207, 8-[6-(dimethylamino)pyridin-3-yl]-3-methyl-1-(1-methylpiperidin-4-yl)-1,3-dihydro-2H-imidazo[4,5-c][1,5]naphthyridin-2-one] |  | 9.62 nM | 0.0194 µM | 
